Data: PubChem BioAssay (NCI)
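In this assay, cells in 96-well plates receive the compound at five concentrations for 48 hours. Endpoints are linearly interpolated between the surrounding concentrations. GI50 is the concentration that inhibits growth by half. The concentration for full growth arrest is given as TGI.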

Experiments:
Experiment in all cases: inhibition of tumour cell growth, NCI panel, 48 h
[1] = system: 786-0 renal
[2] = system: A498 renal
[3] = system: A549 NSCLC
[4] = system: ACHN renal
[5] = system: BT-549 breast
[6] = system: CAKI-1 renal
[7] = system: CCRF-CEM leukemia
[8] = system: COLO 205 colon
[9] = system: DU-145 prostate
[10] = system: EKVX NSCLC
[11] = system: HCC-2998 colon
[12] = system: HCT-116 colon
[13] = system: HCT-15 colon
[14] = system: HL-60(TB) leukemia
[15] = system: HOP-62 NSCLC
[16] = system: HOP-92 NSCLC
[17] = system: HS 578T breast
[18] = system: HT29 colon
[19] = system: IGROV1 ovarian
[20] = system: K-562 leukemia
[21] = system: KM12 colon
[22] = system: LOX IMVI melanoma
[23] = system: M14 melanoma
[24] = system: MALME-3M melanoma
[25] = system: MCF7 breast
[26] = system: MDA-MB-231 breast
[27] = system: MDA-MB-435
[28] = system: MDA-MB-468 breast
[29] = system: MOLT-4 leukemia
[30] = system: NCI-H226 lung
[31] = system: NCI-H23 lung
[32] = system: NCI-H460 lung
[33] = system: NCI-H522 lung
[34] = system: NCI/ADR-RES ovarian
[35] = system: OVCAR-3 ovarian
[36] = system: OVCAR-4 ovarian
[37] = system: OVCAR-5 ovarian
[38] = system: OVCAR-8 ovarian
[39] = system: PC-3 prostate
[40] = system: RPMI-8226 leukemia
[41] = system: RXF 393 renal
[42] = system: SF-268 CNS
[43] = system: SF-295 CNS
[44] = system: SF-539 CNS
[45] = system: SK-MEL-2 melanoma
[46] = system: SK-MEL-28 melanoma
[47] = system: SK-MEL-5 melanoma
[48] = system: SK-OV-3 ovarian
[49] = system: SN12C renal
[50] = system: SNB-19 CNS
[51] = system: SNB-75 CNS
[52] = system: SR leukemia
[53] = system: SW-620 colon
[54] = system: T-47D breast
[55] = system: TK-10 renal
[56] = system: U251 CNS
[57] = system: UACC-257 melanoma
[58] = system: UACC-62 melanoma
[59] = system: UO-31 renal

O=C(Nc1ccc(-c2ccc3c(c2)NC(=O)/C3=C\c2ccc[nH]2)cc1)Nc1ccc(Cl)c(C(F)(F)F)c1
GI50 [1]: 3.09 µM | TGI [1]: 10.2 µM | GI50 [2]: 2.35 µM | TGI [2]: 9.4 µM | GI50 [3]: 1.56 µM | TGI [3]: 3.56 µM | GI50 [4]: 3 µM | TGI [4]: 9.6 µM | GI50 [5]: 2.05 µM | TGI [5]: 6.15 µM | GI50 [6]: 2.92 µM | TGI [6]: 12.9 µM | GI50 [7]: 2.57 µM | TGI [7]: 9.6 µM | GI50 [8]: 2.82 µM | TGI [8]: 10.9 µM | GI50 [9]: 2.13 µM | TGI [9]: 4.99 µM | GI50 [10]: 0.243 µM | TGI [10]: 6.38 µM | GI50 [11]: 2.18 µM | TGI [11]: 6.15 µM | GI50 [12]: 1.78 µM | TGI [12]: 3.46 µM | GI50 [13]: 1.6 µM | TGI [13]: 4.04 µM | GI50 [14]: 3.27 µM | TGI [14]: 15 µM | GI50 [15]: 2.09 µM | TGI [15]: 8.75 µM | GI50 [16]: 1.23 µM | TGI [16]: 4.69 µM | GI50 [17]: 2.64 µM | TGI [17]: 16.1 µM | GI50 [18]: 2.56 µM | TGI [18]: 7.71 µM | GI50 [19]: 4.05 µM | TGI [19]: 17.4 µM | GI50 [20]: 2.54 µM | TGI [20]: 11.3 µM | GI50 [21]: 2.24 µM | TGI [21]: 10.6 µM | GI50 [22]: 1.73 µM | TGI [22]: 3.33 µM | GI50 [23]: 3.47 µM | TGI [23]: 14.4 µM | GI50 [24]: 3.78 µM | TGI [24]: 16.4 µM | GI50 [25]: 0.18 µM | TGI [25]: 1.63 µM | GI50 [26]: 2.23 µM | TGI [26]: 10.1 µM | GI50 [27]: 2 µM | TGI [27]: 4.67 µM | GI50 [28]: 0.033 µM | TGI [28]: 0.322 µM | GI50 [29]: 2.48 µM | TGI [29]: 11.4 µM | GI50 [30]: 1.33 µM | TGI [30]: 11.4 µM | GI50 [31]: 1.12 µM | TGI [31]: 3.12 µM | GI50 [32]: 0.489 µM | TGI [32]: 1.82 µM | GI50 [33]: 1.54 µM | TGI [33]: 3.67 µM | GI50 [34]: 2.93 µM | TGI [34]: 11.1 µM | GI50 [35]: 1.57 µM | TGI [35]: 3.62 µM | GI50 [36]: 1.24 µM | TGI [36]: 8.4 µM | GI50 [37]: 2.18 µM | TGI [37]: 10.5 µM | GI50 [38]: 2.17 µM | TGI [38]: 5.38 µM | GI50 [39]: 1.83 µM | TGI [39]: 6.69 µM | GI50 [40]: 1.56 µM | TGI [40]: 4.98 µM | GI50 [41]: 2.25 µM | TGI [41]: 5.34 µM | GI50 [42]: 1.94 µM | TGI [42]: 5.09 µM | GI50 [43]: 2.84 µM | TGI [43]: 10.2 µM | GI50 [44]: 1.82 µM | TGI [44]: 6.59 µM | GI50 [45]: 3.48 µM | TGI [45]: 14.2 µM | GI50 [46]: 3.04 µM | TGI [46]: 10.2 µM | GI50 [47]: 5.56 µM | TGI [47]: 18.8 µM | GI50 [48]: 2.56 µM | TGI [48]: 13.9 µM | GI50 [49]: 1.71 µM | TGI [49]: 3.53 µM | GI50 [50]: 3.6 µM | TGI [50]: 15.5 µM | GI50 [51]: 2.64 µM | TGI [51]: 17.4 µM | GI50 [52]: 2.13 µM | TGI [52]: 7.01 µM | GI50 [53]: 1.88 µM | TGI [53]: 3.89 µM | GI50 [54]: 0.29 µM | TGI [54]: 4.12 µM | GI50 [55]: 1.43 µM | TGI [55]: 7.55 µM | GI50 [56]: 1.64 µM | TGI [56]: 3.42 µM | GI50 [57]: 2.77 µM | TGI [57]: 9.01 µM | GI50 [58]: 2.62 µM | TGI [58]: 12.9 µM | GI50 [59]: 1.75 µM | TGI [59]: 14.3 µM
